Measurements from the NIST ThermoML archive (doi:10.1021/je800786k).
± gives the expanded uncertainty stated by the source.

Conditions: Liquid, Vibrating tube method

CCC(C)N (configuration not stated) [2-butanamine]
Conditions	mass density [kg/m3]
293.15 K, 100 kPa	725.3 ± 1.1
293.15 K, 10000 kPa	733.6 ± 1.1
293.15 K, 20000 kPa	741.2 ± 1.1
293.15 K, 30000 kPa	748.1 ± 1.1
293.15 K, 40000 kPa	754.5 ± 1.1
293.15 K, 50000 kPa	760.4 ± 1.2
293.15 K, 60000 kPa	766.1 ± 1.2
293.15 K, 70000 kPa	771.3 ± 1.2
293.15 K, 80000 kPa	776.3 ± 1.3
293.15 K, 90000 kPa	781.1 ± 1.3
293.15 K, 100000 kPa	785.5 ± 1.3
293.15 K, 110000 kPa	789.7 ± 1.4
293.15 K, 120000 kPa	793.9 ± 1.4
293.15 K, 130000 kPa	797.8 ± 1.4
293.15 K, 140000 kPa	801.5 ± 1.5
303.15 K, 100 kPa	715.1 ± 1.1
303.15 K, 10000 kPa	724.3 ± 1.1
303.15 K, 20000 kPa	732.4 ± 1.1
303.15 K, 30000 kPa	739.7 ± 1.1
303.15 K, 40000 kPa	746.3 ± 1.1
303.15 K, 50000 kPa	752.5 ± 1.2
303.15 K, 60000 kPa	758.3 ± 1.2
303.15 K, 70000 kPa	763.7 ± 1.2
303.15 K, 80000 kPa	768.9 ± 1.3
303.15 K, 90000 kPa	773.8 ± 1.3
303.15 K, 100000 kPa	778.4 ± 1.4
303.15 K, 110000 kPa	782.9 ± 1.4
303.15 K, 120000 kPa	787.2 ± 1.4
303.15 K, 130000 kPa	791.2 ± 1.5
303.15 K, 140000 kPa	795.2 ± 1.5
313.15 K, 100 kPa	705 ± 1.1
313.15 K, 10000 kPa	714.8 ± 1.1
313.15 K, 20000 kPa	723.4 ± 1.1
313.15 K, 30000 kPa	731.1 ± 1.1
313.15 K, 40000 kPa	738.2 ± 1.1
313.15 K, 50000 kPa	744.7 ± 1.2
313.15 K, 60000 kPa	750.8 ± 1.2
313.15 K, 70000 kPa	756.5 ± 1.3
313.15 K, 80000 kPa	761.9 ± 1.3
313.15 K, 90000 kPa	767 ± 1.3
313.15 K, 100000 kPa	771.8 ± 1.4
313.15 K, 110000 kPa	776.4 ± 1.4
313.15 K, 120000 kPa	780.8 ± 1.5
313.15 K, 130000 kPa	785.1 ± 1.5
313.15 K, 140000 kPa	789.1 ± 1.5
323.15 K, 100 kPa	694.7 ± 1.1
323.15 K, 10000 kPa	705.4 ± 1.1
323.15 K, 20000 kPa	714.5 ± 1.1
323.15 K, 30000 kPa	722.8 ± 1.1
323.15 K, 40000 kPa	730.4 ± 1.2
323.15 K, 50000 kPa	737.2 ± 1.2
323.15 K, 60000 kPa	743.6 ± 1.2
323.15 K, 70000 kPa	749.5 ± 1.3
323.15 K, 80000 kPa	755.2 ± 1.3
323.15 K, 90000 kPa	760.4 ± 1.3
323.15 K, 100000 kPa	765.4 ± 1.4
323.15 K, 110000 kPa	770.2 ± 1.4
323.15 K, 120000 kPa	774.7 ± 1.5
323.15 K, 130000 kPa	779 ± 1.5
323.15 K, 140000 kPa	783.2 ± 1.6
333.15 K, 10000 kPa	695.4 ± 1.1
333.15 K, 20000 kPa	705.2 ± 1.1
333.15 K, 30000 kPa	714 ± 1.1
333.15 K, 40000 kPa	722 ± 1.2
333.15 K, 50000 kPa	729.2 ± 1.2
333.15 K, 60000 kPa	735.8 ± 1.2
333.15 K, 70000 kPa	742.1 ± 1.3
333.15 K, 80000 kPa	748 ± 1.3
333.15 K, 90000 kPa	753.4 ± 1.4
333.15 K, 100000 kPa	758.6 ± 1.4
333.15 K, 110000 kPa	763.5 ± 1.5
333.15 K, 120000 kPa	768.1 ± 1.5
333.15 K, 130000 kPa	772.5 ± 1.5
333.15 K, 140000 kPa	776.9 ± 1.6
343.15 K, 10000 kPa	685.9 ± 1.1
343.15 K, 20000 kPa	696.6 ± 1.1
343.15 K, 30000 kPa	706 ± 1.2
343.15 K, 40000 kPa	714.3 ± 1.2
343.15 K, 50000 kPa	721.9 ± 1.2
343.15 K, 60000 kPa	728.8 ± 1.3
343.15 K, 70000 kPa	735.3 ± 1.3
343.15 K, 80000 kPa	741.3 ± 1.3
343.15 K, 90000 kPa	747.1 ± 1.4
343.15 K, 100000 kPa	752.4 ± 1.4
343.15 K, 110000 kPa	757.4 ± 1.5
343.15 K, 120000 kPa	762.3 ± 1.5
343.15 K, 130000 kPa	767 ± 1.6
343.15 K, 140000 kPa	771.3 ± 1.6
353.15 K, 10000 kPa	675.8 ± 1.1
353.15 K, 20000 kPa	687.1 ± 1.1
353.15 K, 30000 kPa	697.2 ± 1.2
353.15 K, 40000 kPa	705.8 ± 1.2
353.15 K, 50000 kPa	714 ± 1.2
353.15 K, 60000 kPa	721.2 ± 1.3
353.15 K, 70000 kPa	728 ± 1.3
353.15 K, 80000 kPa	734.2 ± 1.4
353.15 K, 90000 kPa	740.1 ± 1.4
353.15 K, 100000 kPa	745.7 ± 1.4
353.15 K, 110000 kPa	751 ± 1.5
353.15 K, 120000 kPa	756 ± 1.5
353.15 K, 130000 kPa	760.7 ± 1.6
353.15 K, 140000 kPa	765.3 ± 1.6
363.15 K, 10000 kPa	665.7 ± 1.2
363.15 K, 20000 kPa	678 ± 1.2
363.15 K, 30000 kPa	688.5 ± 1.2
363.15 K, 40000 kPa	697.8 ± 1.2
363.15 K, 50000 kPa	706.2 ± 1.2
363.15 K, 60000 kPa	713.9 ± 1.3
363.15 K, 70000 kPa	721 ± 1.3
363.15 K, 80000 kPa	727.5 ± 1.4
363.15 K, 90000 kPa	733.6 ± 1.4
363.15 K, 100000 kPa	739.4 ± 1.5
363.15 K, 110000 kPa	744.8 ± 1.5
363.15 K, 120000 kPa	749.9 ± 1.6
363.15 K, 130000 kPa	754.8 ± 1.6
363.15 K, 140000 kPa	759.5 ± 1.7
373.15 K, 10000 kPa	655.5 ± 1.2
373.15 K, 20000 kPa	668.9 ± 1.2
373.15 K, 30000 kPa	680.1 ± 1.2
373.15 K, 40000 kPa	690 ± 1.2
373.15 K, 50000 kPa	698.2 ± 1.3
373.15 K, 60000 kPa	707 ± 1.3
373.15 K, 70000 kPa	714 ± 1.3
373.15 K, 80000 kPa	720.9 ± 1.4
373.15 K, 90000 kPa	727.2 ± 1.4
373.15 K, 100000 kPa	733.2 ± 1.5
373.15 K, 110000 kPa	738.7 ± 1.5
373.15 K, 120000 kPa	744 ± 1.6
373.15 K, 130000 kPa	749.1 ± 1.6
373.15 K, 140000 kPa	753.9 ± 1.7
383.15 K, 10000 kPa	645.5 ± 1.2
383.15 K, 20000 kPa	659.9 ± 1.2
383.15 K, 30000 kPa	671.9 ± 1.2
383.15 K, 40000 kPa	682.3 ± 1.2
383.15 K, 50000 kPa	691.4 ± 1.3
383.15 K, 60000 kPa	699.6 ± 1.3
383.15 K, 70000 kPa	707.3 ± 1.4
383.15 K, 80000 kPa	714.4 ± 1.4
383.15 K, 90000 kPa	720.8 ± 1.5
383.15 K, 100000 kPa	726.9 ± 1.5
383.15 K, 110000 kPa	732.7 ± 1.6
383.15 K, 120000 kPa	738.2 ± 1.6
383.15 K, 130000 kPa	743.3 ± 1.7
383.15 K, 140000 kPa	748.2 ± 1.7
393.15 K, 10000 kPa	634.9 ± 1.2
393.15 K, 20000 kPa	650.5 ± 1.2
393.15 K, 30000 kPa	663.1 ± 1.2
393.15 K, 40000 kPa	674.3 ± 1.2
393.15 K, 50000 kPa	684.3 ± 1.3
393.15 K, 60000 kPa	693 ± 1.3
393.15 K, 70000 kPa	700.9 ± 1.4
393.15 K, 80000 kPa	708.2 ± 1.4
393.15 K, 90000 kPa	714.9 ± 1.5
393.15 K, 100000 kPa	721.2 ± 1.5
393.15 K, 110000 kPa	727.2 ± 1.6
393.15 K, 120000 kPa	732.8 ± 1.6
393.15 K, 130000 kPa	738.1 ± 1.7
393.15 K, 140000 kPa	742.9 ± 1.7
403.15 K, 10000 kPa	623.9 ± 1.2
403.15 K, 20000 kPa	640.6 ± 1.2
403.15 K, 30000 kPa	654.5 ± 1.2
403.15 K, 40000 kPa	666.1 ± 1.3
403.15 K, 50000 kPa	676.3 ± 1.3
403.15 K, 60000 kPa	685.3 ± 1.3
403.15 K, 70000 kPa	693.6 ± 1.4
403.15 K, 80000 kPa	701.1 ± 1.4
403.15 K, 90000 kPa	708.2 ± 1.5
403.15 K, 100000 kPa	714.9 ± 1.5
403.15 K, 110000 kPa	721.1 ± 1.6
403.15 K, 120000 kPa	726.9 ± 1.6
403.15 K, 130000 kPa	732.3 ± 1.7
403.15 K, 140000 kPa	737.4 ± 1.8
